Measured values reported in patent publication US20020025929A1, “METHOD OF BUILDING AND MAINTAINING BONE” (priority 1997, published 2002).
Marks after values point to notes of the source that are not given here.

Experiments:
Format in all cases: in vivo, Sprague-Dawley rats
[1] = system: osteopenic ovariectomized rats; assay: Three point bending test of femora mid-shaft; parameters: I (moment of inertia): unit not given beside the values; details: OVX rats; for E (Young's modulus) / Fu (ultimate force) / I (moment of inertia) / t (cortical thickness) / u (toughness) / σu (strength): femora mid-shaft, mean ± SEM; for load to failure (Fu) and toughness of femora mid-shaft (in words): 1a dose-dependent up to 1 mg/kg, EE2 0.1 mg/kg, PTH (1-34) 45 and 90 days, combination
Description: Bone strength was measured for the femoral neck, midshaft, and the L-6 vertebra. Femora were thawed before testing, and bone strength was measured on intact femora using a three point bending test. Load was applied midway between two supports that were 15 mm apart. The femora were positioned so the loading point was 7.5 mm proximal from the distal popliteal space and bending occurred about the medial-lateral axis. Specimens were tested in a saline bath at 37° C. Each specimen was submerged in the saline bath for three minutes before testing to allow equilibration of temperature. Load-displacement curves were recorded at a crosshead speed of 1 mm/sec using a servo-hydraulic materials testing machine (MTS Corp., Minneapolis, Minn.) and an x-y recorder (Hewlett Packard 7090A, Palo Alto, Calif.). The measurements included: cross-sectional moment of inertia (I), cortical thickness (t), ultimate load (Fu), ultimate stress (σu), Young's modulus (E), and toughness (u). These values were calculated as described previously (Turner and Burr 1993; Turner et al. 1996).
(§1) In a second study, virgin Sprague-Dawley rats were bilaterally ovariectomized (except for the sham-operated group), the ovariectomized animals randomized, and allowed to lose bone for one month prior to treatment in the manner described above. The animal groups, each containing 7-8 animals, included sham-operated animals (SHAM); bilaterally ovariectomized animals (OVX); bilaterally ovariectomized animals treated with 0.01, 0.3 or 1 mg/kg/day of compound 1a, respectively, for three months; bilaterally ovariectomized animals treated subcutaneously with PTH(1-34) at a dose of 10 μg/kg/day for three months; bilaterally ovariectomized animals treated subcutaneously with PTH(1-34) at a dose of 10 μg/kg/day and orally with compound 1a at a dose of 0.3 mg/kg/day, both compounds administered for three months; bilaterally ovariectomized animals treated subcutaneously with PTH(1-34) at a dose of 10 μg/kg/day for forty-five days followed by gavage administration of vehicle for forty-five days; bilaterally ovariectomized animals treated subcutaneously with PTH(1-34) at a dose of 10 μg/kg/day for forty-five days followed by oral administration of only compound 1a at a dose of 0.3 mg/kg/day for forty-five days; and bilaterally ovariectomized animals treated with 17α-ethynyl estradiol administered orally at a dose of 0.1 mg/kg/day.

osteopenic rats [2] = assay: Micro-CT of L-3 vertebra; details: continuous dosing, 1a 0.01-1 mg/kg, 17α-ethynyl estradiol 0.1 mg/kg, PTH (1-34), 1a 0.3 mg/kg with PTH (1-34), FIG. 3
Description: (§2) The metaphysis of proximal tibiae were scanned longitudinally from baseline, using a 960A pQCT loaded with Dichte software version 5.2 (Norland/Stratec, Ft. Atkinson, Wis.), using the technique described by Sato et al., —1995, JPET 272:1252-1259; Sato 1995, Bone 17:157S-162S). Volumetric bone mineral density (BMD, mg/cm3), cross-sectional area (X-Area), voxel number, and mineral content (BMC, mg) were quantitated for the whole cross-section of the metaphysis. Sites of excised bones were analyzed at higher resolution, using a micro-CT (Stratec). Specifically, distal femora (below the condyles, see Sato et al. 1995) and L-3 vertebra (mid-cross section, Helterbrand et al., 1997, Bone 21:401-409) were analyzed using voxel dimensions of 50 ×50×1000 μm and 70×70×1000 μm, respectively.
(§3) In a second study, virgin Sprague-Dawley rats were bilaterally ovariectomized (except for the sham-operated group), the ovariectomized animals randomized, and allowed to lose bone for one month prior to treatment in the manner described above. […]

[3] = system: osteopenic ovariectomized rats; assay: Longitudinal pQCT of proximal tibial metaphysis; details: OVX rats, FIG. 1
Description: as §2, §1
In the second study, the proximal tibial metaphysis was scanned longitudinally by pQCT for rats from baseline.
Treatment, as indicated, was initiated after 1 month postovariectomy and continued for the following 3 months. Specifically, administration of compound 1a alone(closed triangles), PTH (1-34) alone (open triangles), in combination (closed squares), or in sequence (closed diamonds) were compared to OVX (open circles), Sham (closed circles), and estrogen (EE2, open diamonds) controls.

osteopenic rats [4] = assay: Micro-CT of distal femur metaphysis; details: continuous treatment, 1a 0.01-1 mg/kg, 17α-ethynyl estradiol 0.1 mg/kg, PTH (1-34), 1a 0.3 mg/kg with PTH (1-34), FIG. 2
Description: as §2, §3

[5] = system: osteopenic ovariectomized rats; assay: Femoral neck strength (shear loading of proximal femur); parameters: Neck Fu (ultimate force): unit not given beside the values; details: OVX rats; for Neck Fu (ultimate force): proximal femora in shear, mean ± SEM
Description: Femoral neck strength was measured by mounting the proximal half of the femur vertically in a chuck and applying downward force at a rate of 1 mm/sec on the femoral head until the neck failed. The ultimate load was calculated as the maximum force sustained by the femoral neck. All tests were done at room temperature using the MTS system.
as §1

[6] = system: osteopenic ovariectomized rats; assay: Compression testing of L-6 vertebra; details: OVX rats; for Vert E (Young's modulus) / Vert u (toughness) / Vert σu (vertebral strength): lumbar vertebra in compression, mean ± SEM; for vertebral strength (Su) and toughness of L-6 vertebra (in words): continuous treatment (PTH 90 days)
Description: Bone strength of L-6 vertebrae was measured after the posterior processes were removed and the ends of the centrum made parallel using a diamond wafering saw (Buehler Isomet, Evanston, Ill.). Ultimate stress (σu) Young's modulus (E), and toughness (u) for each vertebra was measured in compression at a load rate of 50 N/sec using the MTS machine. The compressive load was applied through a pivoting platen to correct for nonparallel alignment of the faces of the vertebral body (Turner and Burr, 1993).
Specimens were tested in saline solution at 37° C. Ultimate stress was calculated as the maximum load divided by the gross cross-sectional area πAB/4, where A and B are the vertebral widths in the anterior-posterior and medial lateral directions. Young's modulus was calculated by multiplying stiffness times 4T/πAB, where T is the specimen thickness. Toughness was calculated as the area under the load-displacement curve divided by πABT/4.
as §1

[7] = continuous treatment (PTH 90 days)
[8] = 3 months: PTH (1-34) 10 μg/kg/day s.c., 1a 0.3 mg/kg/day oral + PTH, EE2 0.1 mg/kg/day oral
[9] = treated continuously 3 months (90 days), at termination, 1a 0.01, 0.3, 1.0 mg/kg, EE2 0.1 mg/kg, PTH (1-34) 10 μg/kg
[10] = Cmpd 1a 0.01 mg/kg/day oral, 3 months
[11] = Cmpd 1a 0.3 mg/kg/day oral, 3 months
[12] = Cmpd 1a 1 mg/kg/day oral, 3 months
[13] = Cmpd. 1a 0.01 mg/kg/day oral, 3 months
[14] = Cmpd. 1a 0.3 mg/kg/day oral, 3 months
[15] = Cmpd. 1a 1 mg/kg/day oral, 3 months
[16] = PTH (1-34) discontinued after 45 days or switched to compound 1a
[17] = PTH (1-34) 10 μg/kg/day s.c. 45 days, then vehicle or 1a 0.3 mg/kg/day oral 45 days

Compound: C#C[C@]1(O)CC[C@H]2[C@@H]3CCc4cc(O)ccc4[C@H]3CC[C@@]21C [EE2, 17α-ethynyl estradiol]
- cortical thickness of femora mid-shaft (in words) [1, 7]: intermediate between Sham and OVX
- E (Young's modulus) [1, 8]: 10002 ± 844
- Fu (ultimate force) [1, 8]: 182 ± 11^o
- I (moment of inertia) [1, 8]: 4.42 ± .33
- t (cortical thickness) [1, 8]: .686 + .015^o
- u (toughness) [1, 8]: 4.62 ± .52^o
- σu (strength) [1, 8]: 225 ± 13^o
- load to failure (Fu) and toughness of femora mid-shaft (in words) [1]: above OVX and not different from Sham
- spinal BMD or BMC of L-3 vertebra (micro-CT) (osteopenic rats [2]): marginal effects
- volumetric BMD of proximal tibial metaphysis (pQCT) [3, 9]: BMD significantly greater than OVX at termination
- BMD of distal femur metaphysis (micro-CT) (osteopenic rats [4]): prevented further bone loss
- Neck Fu (ultimate force) [5, 8]: 110 ± 6.1
- Vert E (Young's modulus) [6, 8]: 579 ± 94
- Vert u (toughness) [6, 8]: 1.44 ± 0.37
- Vert σu (vertebral strength) [6, 8]: 28.1 ± 2.6^o

Compound: COc1ccc(-c2sc3cc(O)ccc3c2Oc2ccc(OCCN3CCCCC3)cc2)cc1 [Compound 1a, 6-hydroxy-2-(4-methoxyphenyl)-3-[4-(2-piperidin-1-ylethoxy)phenoxy]-benzo[b]thiophene]
- cortical thickness of femora mid-shaft (in words) [1, 7]: intermediate between Sham and OVX
- E (Young's modulus) [1, 10]: 9081 ± 446
- Fu (ultimate force) [1, 10]: 160 ± 5^s
- I (moment of inertia) [1, 10]: 4.35 ± .21
- t (cortical thickness) [1, 10]: .635 ± .020^s,o
- u (toughness) [1, 10]: 3.72 ± .26^s,o
- σu (strength) [1, 10]: 199 ± 5^s,o
- E (Young's modulus) [1, 11]: 8844 ± 431
- Fu (ultimate force) [1, 11]: 164 ± 4^s,o
- I (moment of inertia) [1, 11]: 4.05 ± .17^o
- t (cortical thickness) [1, 11]: .654 ± .012^s,o
- u (toughness) [1, 11]: 4.13 ± .24^o
- σu (strength) [1, 11]: 217 ± 5^o
- E (Young's modulus) [1, 12]: 10087 ± 520
- Fu (ultimate force) [1, 12]: 174 ± 4^o
- I (moment of inertia) [1, 12]: 4.17 ± .21
- t (cortical thickness) [1, 12]: .671 ± .010^s,o
- u (toughness) [1, 12]: 4.52 ± .25^o
- σu (strength) [1, 12]: 228 ± 9^o
- load to failure (Fu) and toughness of femora mid-shaft (in words) [1]: improved load to failure (Fu) and toughness in a dose-dependent manner to above OVX and not different from Sham at 1 mg/kg
- spinal BMD or BMC of L-3 vertebra (micro-CT) (osteopenic rats [2]): marginal effects
- volumetric BMD of proximal tibial metaphysis (pQCT) [3, 9]: prevented further bone loss and had BMD significantly greater than OVX at termination
- BMD of distal femur metaphysis (micro-CT) (osteopenic rats [4]): prevented further bone loss
- Neck Fu (ultimate force) [5, 13]: 112 ± 4.7
- Neck Fu (ultimate force) [5, 14]: 114 ± 5.1
- Neck Fu (ultimate force) [5, 15]: 117 ± 3.1
- vertebral strength (Su) and toughness of L-6 vertebra (in words) [6]: improved vertebral strength (Su) and toughness in a dose-dependent manner to above OVX
- Vert E (Young's modulus) [6, 13]: 540 ± 72
- Vert u (toughness) [6, 13]: 1.72 ± 0.44
- Vert σu (vertebral strength) [6, 13]: 24.8 ± 2.3^s
- Vert E (Young's modulus) [6, 14]: 436 ± 76
- Vert u (toughness) [6, 14]: 1.97 ± 0.37
- Vert σu (vertebral strength) [6, 14]: 28.3 ± 1.9^o
- Vert E (Young's modulus) [6, 15]: 384 ± 30
- Vert u (toughness) [6, 15]: 2.30 ± 0.29^o
- Vert σu (vertebral strength) [6, 15]: 27.8 ± 1.5^o

Compound: PTH: N-terminal 1-34 fragment of human parathyroid hormone, hPTH(1-34, Sequence ID No. 3); PTH/vehicle = 45 days PTH then vehicle
- cortical thickness of femora mid-shaft (in words) [1, 16]: lowered cortical thickness to below Sham
- cortical thickness of femora mid-shaft (in words) [1, 7]: increased cortical thickness above OVX
- E (Young's modulus) [1, 8]: 9854 ± 597
- Fu (ultimate force) [1, 8]: 202 ± 7^o
- I (moment of inertia) [1, 8]: 4.86 ± .26
- t (cortical thickness) [1, 8]: .739 ± .023^o
- u (toughness) [1, 8]: 5.24 ± .52^o
- σu (strength) [1, 8]: 234 ± 9^o
- E (Young's modulus) [1, 17]: 8516 ± 580
- Fu (ultimate force) [1, 17]: 171 ± 4^o
- I (moment of inertia) [1, 17]: 4.72 ± .17
- t (cortical thickness) [1, 17]: .630 ± .010^s
- u (toughness) [1, 17]: 3.81 ± .24^s,o
- σu (strength) [1, 17]: 205 ± 6^s,o
- load to failure (Fu) and toughness of femora mid-shaft (in words) [1]: improved Fu to above OVX
- spinal BMD or BMC of L-3 vertebra (micro-CT) (osteopenic rats [2]): improved BMD to significantly above OVX
- volumetric BMD of proximal tibial metaphysis (pQCT) ([3]; PTH (1-34) 45 days then discontinued or switched to compound 1a, at termination): BMD decreased to significantly below Sham
- volumetric BMD of proximal tibial metaphysis (pQCT) ([3]; after PTH (1-34) for 45 days): regained BMD to Sham levels
- BMD of distal femur metaphysis (micro-CT) (osteopenic rats [4]): increased BMD was observed to levels significantly beyond OVX, Sham, and baseline levels
- ultimate load for the femora neck (in words) [5]: higher than OVX and Sham
- Neck Fu (ultimate force) [5, 8]: 148 ± 2.6^s,o
- Neck Fu (ultimate force) [5, 17]: 116 ± 6.2
- vertebral strength (Su) of L-6 vertebra (in words) [6, 16]: lowered Su to below Sham
- vertebral strength (Su) and toughness of L-6 vertebra (in words) [6]: increased Su and toughness to above OVX and Sham levels
- Vert E (Young's modulus) [6, 8]: 686 ± 77
- Vert u (toughness) [6, 8]: 3.68 ± 1.10^s,o
- Vert σu (vertebral strength) [6, 8]: 45.5 ± 2.4^s,o
- Vert E (Young's modulus) [6, 17]: 524 ± 109
- Vert u (toughness) [6, 17]: 1.16 ± 0.22
- Vert σu (vertebral strength) [6, 17]: 24.2 ± 2.5^s
